Measurements published in article PMC6316846, “Pretargeted Imaging with Gallium-68—Improving the Binding Capability by Increasing the Number of Tetrazine Motifs” (Pharmaceuticals, 2018).
Like-named read-outs stand apart in the source and are kept apart here.

Assays:
immobilized RTX-TCO = assay: Competitive binding assay on immobilized RTX-TCO; details: non-labelled conjugate as competitor, 30 min RT
Experimental: Binding on immobilized RTX-TCO was conducted using high protein-binding capacity Nunc MaxiSorp™ 96-well plates (Thermo Fisher Scientific, Vienna, Austria). Coating was performed by adding 20 µg of antibody (RTX or RTX-TCO) dissolved in 100 µL coating buffer (0.1 M NaHCO3, pH 8.5) to each well and after 2 h incubation at RT the plate was left at 4 °C overnight both under the exclusion of light. After removal of the coating solution 200 µL of blocking buffer (1% BSA in PBS) was added, left for 1 h at room temperature and subsequently each well was washed twice with 200 µL binding buffer (0.1% BSA in PBS). Hereafter, the radioligand was mixed with increasing concentrations of the competitor (=non-labelled conjugate), diluted in binding buffer and 100 µL of the mixture was added to each well. After 30 min at RT the supernatant was removed, each well was washed three times with 150 µL binding buffer and the coating film was finally detached with 2 × 150 µL of hot (80 °C) 2 N sodium hydroxide (NaOH). The NaOH fraction was taken for gamma counter measurement to determine the percentage of binding in contrast to the standard followed by non-liner curve fitting using Origin 6.1 software (Origin Inc., Northampton, MA, USA) to calculate the apparent half maximum inhibitory concentration of the competitor (n = 3, 4 replicates).

[1] = Distribution coefficient (logD), octanol/PBS; format: physicochemical; details: mean ± SD (n = 3); for LogD (pH 7.4): ^68Ga-labelled compound
Experimental: To determine the distribution of the ^68Ga-labelled conjugates between an organic (octanol) and aqueous (PBS) layer, aliquots (50 µL) of the tracers (~5 µM) were diluted in 1 mL of octanol/PBS (1:1, v/v). The mixture was vortexed at 1400 rpm (MS 3 basic vortexer, IKA, Staufen, Germany) for 15 min at RT followed by centrifugation for 2 min at 4500 rpm. Subsequently, aliquots (50 µL) of both layers were collected and measured in the gamma counter (Wizard2 3”, Perkin Elmer, Waltham, MA, USA) followed by logD calculation (n = 3, six replicates).

[2] = Serum protein binding, Sephadex G-50 size exclusion; format: in vitro ADME; details: ^68Ga-labelled compound, human serum, 37 °C, mean ± SD (n = 3)
Experimental: Serum protein binding was determined using Sephadex G-50 (GE Healthcare Vienna, Austria) size exclusion chromatography. Aliquots (50 µL, n = 3) of the radioligand solution (~10 µM) were incubated in 450 µL freshly prepared human serum or 450 µL PBS (controls) and were kept at 37 °C. After 1, 2, and 4 h aliquots (25 µL) were directly transferred to the column (MicroSpin G-50, GE Healthcare) and after centrifugation (2 min, 2000 rcf) the column containing the free conjugate and the eluate containing the protein-bound conjugate were measured in the gamma counter. The percent of activity in both fractions was calculated thereafter.

[3] = system: CD20-expressing Raji cells; assay: FACS analysis of antibody binding to Raji cells; format: cell-based; details: antibody at 20 µM, APC-labelled anti-human IgG Fc secondary antibody
Experimental: The humanoid lymphoblast-like CD20-expressing B-lymphocyte cells (Raji cells) were purchased from American Type Culture Collection (ATCC, Manassas, VA, USA). Flow cytometric analysis of CD20 expression was evaluated on (Raji cells) adjusted to 5 × 10^5 cells/sample in DMEM (including 10% FCS, 1% Pen/Strep). Cells were incubated with FC-Block (containing CD16/CD32 (1:200), e-Bioscience, Thermo Fisher Scientific, Vienna, Austria) for 15 min at 4 °C in order to avoid signals from non-specific binding. The following antibodies were used: RTX-TCO and RTX, both at 20 µM (f. c.). As secondary antibody a APC-labelled anti-human IgG Fc (clone: HP6017; BioLedgend, San Diego, CA, USA) at a dilution of 1:100 was used. Antibodies were incubated for at least 15 min at 4 °C. FACS analysis was performed on BD LSRFortessa™ (Cell Analyzer, BD Bioscience, San Jose, CA, USA). As internal control samples unstained or stained with either primary or secondary antibodies were analyzed. FACS-data was analyzed by FlowJo v10 software.

[4] = radioligand [^68Ga]Ga-Tz-dimer, read-out: Competitor concentration reducing binding of [^68Ga]Ga-Tz-dimer by 50%
[5] = radioligand [^68Ga]Ga-Tz-monomer, read-out: Competitor concentration reducing binding of [^68Ga]Ga-Tz-monomer by 50%
[6] = radioligand [^68Ga]Ga-Tz-trimer, read-out: Competitor concentration reducing binding of [^68Ga]Ga-Tz-trimer by 50%

Compound	IC50 (immobilized RTX-TCO; [4]) [nM]	IC50 (immobilized RTX-TCO; [5]) [nM]	IC50 (immobilized RTX-TCO; [6]) [nM]	LogD (pH 7.4) [1]	Protein Binding (%) 1 h ([2]; 1 h) [%]	Protein Binding (%) 2 h ([2]; 2 h) [%]	Protein Binding (%) 4 h ([2]; 4 h) [%]	logD ([1]; octanol/PBS (1:1, v/v), pH 7.4, ^68Ga-labelled compound)	fraction unbound at 1 h ([2]; 1 h)	fraction unbound at 2 h ([2]; 2 h)	fraction unbound at 4 h ([2]; 4 h)	Target specificity by FACS [3]
C/C1=C/C(=O)N(O)CCCC(NC(=O)CCOCCOCCOCCOCCOCCC(=O)NCc2ccc(-c3nncnn3)cc2)C(=O)OCC/C(C)=C\C(=O)N(O)CCCC(NC(=O)CCOCCOCCOCCOCCOCCC(=O)NCc2ccc(-c3nncnn3)cc2)C(=O)OCC/C(C)=C\C(=O)N(O)CCCC(NC(=O)CCOCCOCCOCCOCCOCCC(=O)NCc2ccc(-c3nncnn3)cc2)C(=O)OCC1 (centres unmarked) [Tz-trimer, FSC-(PEG5-Tz)3]	92 ± 15	100 ± 10	147 ± 49	−1.00 ± 0.06	70.5 ± 0.7	69.5 ± 0.4	67.8 ± 0.4	–	–	–	–	–
TCO-modified RTX: anti-CD20 monoclonal antibody rituximab modified with trans-cyclooctene (TCO-NHS ester)	–	–	–	–	–	–	–	–	–	–	–	high target specificity
rituximab [non-modified RTX, reference compound]	–	–	–	–	–	–	–	–	–	–	–	high target specificity

The next lines start with results.

IC50 (immobilized RTX-TCO; [4]) [nM]	IC50 (immobilized RTX-TCO; [5]) [nM]	IC50 (immobilized RTX-TCO; [6]) [nM]	LogD (pH 7.4) [1]	Protein Binding (%) 1 h ([2]; 1 h) [%]	Protein Binding (%) 2 h ([2]; 2 h) [%]	Protein Binding (%) 4 h ([2]; 4 h) [%]	logD ([1]; octanol/PBS (1:1, v/v), pH 7.4, ^68Ga-labelled compound)	fraction unbound at 1 h ([2]; 1 h)	fraction unbound at 2 h ([2]; 2 h)	fraction unbound at 4 h ([2]; 4 h)	Compound	Target specificity by FACS [3]
95 ± 25	112 ± 6	258 ± 60	−1.35 ± 0.01	67.0 ± 2.4	65.9 ± 1.3	68.4 ± 0.3	–	–	–	–	CC(=O)NC1CCCN(O)C(=O)/C=C(/C)CCOC(=O)C(NC(=O)CCOCCOCCOCCOCCOCCC(=O)NCc2ccc(-c3nncnn3)cc2)CCCN(O)C(=O)/C=C(/C)CCOC(=O)C(NC(=O)CCOCCOCCOCCOCCOCCC(=O)NCc2ccc(-c3nncnn3)cc2)CCCN(O)C(=O)/C=C(/C)CCOC1=O (centres unmarked) [Tz-dimer, MAFC-(PEG5-Tz)2]	–
865 ± 263	486 ± 52	2990 ± 1660	–	–	–	–	-1.64 ± 0.02	0.382	0.362	0.36	CC(=O)NC1CCCN(O)C(=O)/C=C(/C)CCOC(=O)C(NC(=O)CCOCCOCCOCCOCCOCCC(=O)NCc2ccc(-c3nncnn3)cc2)CCCN(O)C(=O)/C=C(/C)CCOC(=O)C(NC(C)=O)CCCN(O)C(=O)/C=C(/C)CCOC1=O (centres unmarked) [Tz-monomer, DAFC-PEG5-Tz]	–
